Measured values taken from US7985771B2, “Furanone derivatives” (Monsanto Technology LLC, priority 2002, dated 2011).

Assays:
[1] = system: IL-1beta release from a mouse microglial cell line; experiment: Interleukin-1 beta microglial cell assay; assay type: cell-based; conditions: LPS and IFN gamma stimulation, 24 hours, read-out: inhibition of IL-1beta induction, EC50
Method: This assay measures the release of IL-1β from a mouse microglial cell line following an inflammatory challenge with LPS and interferon-gamma. The ability of test articles to inhibit microglial cell activation and IL-1beta release is determined by co-incubation of the test article with the inflammatory challenge. Cytokine release is measured using a mouse IL-1β ELISA and cell toxicity is determined using Cell Tracker Green (a fluorescent dye that measures cell viability).
Mouse microglial cells were seeded in poly-D-lysine coated 96-well plates at a density of 10,000 cells/well and allowed to attach for 24 hours. Cells were stimulated by addition of LPS (10 μg/ml) and IFN gamma (10 ng/ml) in the presence or absence of test article. The cells were then incubated for 24 hours at 37° C., after which time the media was removed and used for cytokine determination as described below.
Viability of mouse microglial cells after exposure to the test article was determined using a fluorescent viability dye, Cell Tracker Green. Cell Tracker Green was used at a working concentration of 5 μM in 1× HBSS. Cells were washed once with HBSS (200 μl/well) and 100 μl Cell Tracker Green was added to each well. Cells were then incubated at 37° C. for 30 minutes, after which time the Cell Tracker was removed and the cells were washed once with HBSS (200 μl/well). 100 μl fresh HBSS was added to each well and the plate was read on a Fluoroskan plate reader using an excitation wavelength of 485 nm and an emission wavelength of 538 nm.
1. The IL-1β capture antibody was reconstituted in 1 ml of PBS to give a final concentration of 720 μg/ml, and the working concentration was 4 μg/ml. For coating one 96-well plate (at 100 μl/well) 56 μl of the 720 μg/ml stock was diluted into 10 ml of PBS. 2. The IL-1β standards were reconstituted in 0.5 ml of Reagent Diluent (70 ng/ml). For a high standard of 1 ng/ml (2 wells at 100 μl each+enough for series dilution) 7.1 μl of the 70 ng/ml standard were diluted into 0.5 ml of Reagent Diluent 3. The IL-1β detection antibody was reconstituted in 1 ml of Reagent Diluent to give a final concentration of 18 μg/ml and the working concentration is 100 ng/ml. For one 96-well plate (at 100 μl/well) 56 μl of the 18 μg/ml stock was diluted into 10 ml of Reagent Diluent.
1. The Costar EIA Hi-binding plate was coated with capture antibody at 4 μg/ml. Each well was coated with 100 μl, and the plate was sealed and incubated overnight at room temperature.
2. Each well was aspirated and washed 3× with Wash Buffer. Each well was filled to the top, dispensed, and any remaining buffer was removed by inverting the plate and gently blotting against clean paper towels.
3. Non-specific binding sites were blocked by adding 300 μl of Blocking Buffer to each well, and after sealing incubating for at least 1 hour at room temperature.
5. 100 μl of either standard or sample were added in each well of the capture-coated and pre-blocked plate. The plate was sealed and incubated for 2 hours at room temperature, followed with washing as in step 2.
6. 100 μl of the detection antibody ([…]) were added to each well.
7. The plate was sealed and incubated at room temperature for 2 hours, followed with washing as in step 2.
8. 100 μl of the working dilution of Streptavidin-HRP was added, and the plate was sealed and incubated in the dark for 20 minutes at room temperature, followed with washing as in Step 2.
9. The fresh Substrate Solution was prepared by mixing Color Reagent A (H2O2) and Color Reagent B (Tetramethylbenzidine) in a 1:1 ratio. 100 μl of this Substrate Solution mixture was added to each well and the plate was incubated in the dark for 20 minutes at room temperature. 10. 50 μl of Stop Solution was added to each well, mixing was ensured by gently tapping. 11. Each plate was read with the Spectramax once at 450 nm. Results

[2] = system: ELAM (E-selectin) expression in endothelial cells; experiment: E-selectin (ELAM) cell inflammation assay; assay type: cell-based; conditions: LPS and IL-1β stimulation, read-out: reduction of expression of ELAM, EC50
Method: Endothelial-Leukocyte Adhesion Molecule (ELAM), also known as E-selectin, is expressed on the surface of endothelial cells. In this assay, lipopolysaccharide (LPS) and IL-1β are used to stimulate the expression of ELAM; test agents are tested for their abilities to reduce this expression, in accordance with studies showing that reduction of leukocyte adhesion to endothelial cell surface is associated with decreased cellular damage (e.g., Takada, M., Et al., Transplantation 64: 1520-25, 1997; Steinberg, J. B., et al., J. Heart Lung Trans. 13:306-313, 1994).
Endothelial cells may be selected from any of a number of sources and cultured according to methods known in the art; including, for example, coronary artery endothelial cells, human brain microvascular endothelial cells (HBMEC; Hess, D.C., et al., Neurosci. Left. 213(1): 37-40, 1996), or lung endothelial cells. Cells are conveniently cultured in 96-well plates. Cells are stimulated by adding a solution to each well containing 10 μg/ml LPS and 100 pg/ml IL-1β for 6 hours in the presence of test agent (specific concentrations and time may be adjusted depending on the cell type). Treatment buffer is removed and replaced with pre-warmed Fixing Solution® (100 μl/well) for 25 minutes at room temperature. Cells are then washed 3×, then incubated with Blocking Buffer (PBS+2% FBS) for 25 minutes at room temperature. Blocking Buffer containing Monoclonal E-Selectin Antibody (1:750, Sigma Catalog #S-9555) is added to each well. Plates are sealed and stored at 4° overnight. Plates are washed 4× with 160 μL Blocking Buffer per well. Second Antibody-HRP diluted 1:5000 in Blocking Buffer is then added (100 μL/well), and plates are incubated at room temperature (protected from light) for two hours. Plates are then washed 4× with Blocking Buffer before addition of 100 μL of ABTS Substrate solution at room temperature (Zymed, Catalog #00-2024). Wells are allowed to develop for 35 minutes, before measurement at 402 nm in a Fluoroskan® Reader with shake program for 10 seconds. Positive results are recorded as a decrease in ELAM concentration in tested wells, as compared to control wells.

SMILES | EC50 [1] [µM] | EC50 [2] [µM]
CCOC(=O)C1(CSCc2ccccc2)OC(=O)C(O)=C1SCc1ccccc1 (stereo not drawn) [3-Benzylsulfanyl-2-benzylsulfanylmethyl-4-hydroxy-5-oxo-2,5-dihydro-furan-2-carboxylic acid ethyl ester] | ≤ 20 | ≤ 30
CCOC(=O)C1(CSC2CCCCC2)OC(=O)C(O)=C1SC1CCCCC1 (stereo not drawn) [3-Cyclohexylsulfanyl-2-cyclohexylsulfanylmethyl-4-hydroxy-5-oxo-2,5-dihydro-furan-2-carboxylic acid ethyl ester] | ≤ 20 | ≤ 30
CCOC(=O)CSCC1(C(=O)OCC)OC(=O)C(OC(=O)C(C)(C)C)=C1SCC(=O)OCC (stereo not drawn) [4-(2,2-Dimethyl-propionyloxy)-3-ethoxycarbonylmethylsulfanyl-2-ethoxycarbonylmethylsulfanylmethyl-5-oxo-2,5-dihydro-furan-2-carboxylic acid ethyl ester] | ≤ 20 | ≤ 30
CCOC(=O)C1(CSc2nc3ccccc3n2C)OC(=O)C(O)=C1Sc1nc2ccccc2n1C (stereo not drawn) [4-Hydroxy-3-(1-methyl-1H-benzoimidazol-2-ylsulfanyl)-2-(1-methyl-1H-benzoimidazol-2-ylsulfanylmethyl)-5-oxo-2,5-dihydro-furan-2-carboxylic acid ethyl ester] | ≤ 20 | ≤ 30
CCOC(=O)C1(CSc2nc3cc(OC)ccc3s2)OC(=O)C(O)=C1Sc1nc2cc(OC)ccc2s1 (stereo not drawn) [4-Hydroxy-3-(5-methoxy-benzothiazol-2-ylsulfanyl)-2-(5-methoxy-benzothiazol-2-ylsulfanylmethyl)-5-oxo-2,5-dihydro-furan-2-carboxylic acid ethyl ester] | ≤ 20 | ≤ 30
CCOC(=O)C1(CSc2nc3ccc([N+](=O)[O-])cc3s2)OC(=O)C(O)=C1Sc1nc2ccc([N+](=O)[O-])cc2s1 (stereo not drawn) [4-Hydroxy-3-(6-nitro-benzothiazol-2-ylsulfanyl)-2-(6-nitro-benzothiazol-2-ylsulfanylmethyl)-5-oxo-2,5-dihydro-furan-2-carboxylic acid ethyl ester] | ≤ 20 | ≤ 30
CCOC(=O)C1(CSc2ccc(C=CC(=O)OC)cc2)OC(=O)C(O)=C1Sc1ccc(C=CC(=O)OC)cc1 (stereo not drawn) [4-Hydroxy-3-[4-(2-methoxycarbonyl-vinyl)-phenylsulfanyl]-2-[4-(2-methoxycarbonyl-vinyl)-phenylsulfanylmethyl]-5-oxo-2,5-dihydro-furan-2-carboxylic acid ethyl ester] | ≤ 20 | ≤ 30
CCOC(=O)C1(CSc2nc(-c3ccccc3)cs2)OC(=O)C(O)=C1Sc1nc(-c2ccccc2)cs1 (stereo not drawn) [4-Hydroxy-5-oxo-3-(4-phenyl-thiazol-2-ylsulfanyl)-2-(4-phenyl-thiazol-2-ylsulfanylmethyl)-2,5-dihydro-furan-2-carboxylic acid ethyl ester] | ≤ 20 | ≤ 30
CCOC(=O)C1(CSc2nccc(C(F)(F)F)n2)OC(=O)C(O)=C1Sc1nccc(C(F)(F)F)n1 (stereo not drawn) [4-Hydroxy-5-oxo-3-(4-trifluoromethyl-pyrimidin-2-ylsulfanyl)-2-(4-trifluoromethyl-pyrimidin-2-ylsulfanylmethyl)-2,5-dihydro-furan-2-carboxylic acid ethyl ester] | ≤ 20 | ≤ 30
